Reference: patent US7608599B2, “Antiviral phosphoramidates” (Roche Palo Alto LLC, priority 2005, dated 2009)

test system: HCV replicon RNA replication (Renilla luciferase HCV replicon cells 2209-23); experiment: Renilla luciferase assay (HCV replicon); type: cell-based; conditions: 72 h; Huh7-derived replicon cell line 2209-23, three days incubation, luciferase readout

CC(C)OC(=O)[C@H](C)NP(=O)(OC[C@@]1(N=[N+]=[N-])O[C@@H](n2ccc(=O)[nH]c2=O)[C@H](O)[C@@H]1O)Oc1ccccc1 (stereo partly drawn) [Compound I-14, (S)-2-{[(2R,3S,4R,5R)-2-Azido-5-(2,4-dioxo-3,4-dihydro-2H-pyrimidin-1-yl)-3,4-dihydroxy-tetrahydro-furan-2-ylmethoxy]-phenoxy-phosphorylamino}-propionic acid isopropyl ester] and CC(C)OC(=O)[C@H](C)NP(=O)(OC[C@@]1(N=[N+]=[N-])O[C@@H](n2ccc(N)nc2=O)[C@H](O)[C@@H]1O)Oc1ccccc1 (stereo partly drawn) [Compound I-35, (S)-2-{[(2R,3S,4R,5R)-5-(4-Amino-2-oxo-2H-pyrimidin-1-yl)-2-azido-3,4-dihydroxy-tetrahydro-furan-2-ylmethoxy]-phenoxy-phosphorylamino}-propionic acid isopropyl ester] are within 1.5-fold of each other in IC50: 864 nM for the first, 991 nM for the second.

Going from C[C@H](NP(=O)(OC[C@@]1(N=[N+]=[N-])O[C@@H](n2ccc(=O)[nH]c2=O)[C@H](O)[C@@H]1O)Oc1ccccc1)C(=O)OCc1ccccc1 (stereo partly drawn) [Compound I-13, (S)-2-{[(2R,3S,4R,5R)-2-Azido-5-(2,4-dioxo-3,4-dihydro-2H-pyrimidin-1-yl)-3,4-dihydroxy-tetrahydro-furan-2-ylmethoxy]-phenoxy-phosphorylamino}-propionic acid benzyl ester] to CCOC(=O)[C@H](C)NP(=O)(OC[C@@]1(N=[N+]=[N-])O[C@@H](n2ccc(N)nc2=O)[C@H](O)[C@@H]1O)Oc1ccccc1 (stereo partly drawn) [Compound I-34, (S)-2-{[(2R,3S,4R,5R)-5-(4-Amino-2-oxo-2H-pyrimidin-1-yl)-2-azido-3,4-dihydroxy-tetrahydro-furan-2-ylmethoxy]-phenoxy-phosphorylamino}-propionic acid ethyl ester], the IC50 falls from 754 nM to 382 nM (2-fold).

In the case of CCC(C)OC(=O)[C@H](C)NP(=O)(OC[C@@]1(N=[N+]=[N-])O[C@@H](n2ccc(N)nc2=O)[C@H](O)[C@@H]1O)Oc1ccccc1 (stereo partly drawn) [Compound I-28, (S)-2-{[(2R,3S,4R,5R)-5-(4-Amino-2-oxo-2H-pyrimidin-1-yl)-2-azido-3,4-dihydroxy-tetrahydro-furan-2-ylmethoxy]-phenoxy-phosphorylamino}-propionic acid sec-butyl ester], the IC50 is reported as 615 nM.

test system: HIV; experiment: not given; conditions: background, Ohrui et al.; cited from earlier work

In the case of C#CC1(CO)OC(n2ccc(N)nc2=O)C(O)C1O (stereo not shown) [Compound 6a, 4-Ethynyl-cytarabine], the anti-HIV activity is given as “good anti-HIV activity”.
In the case of C#C[C@]1(CO)O[C@@H](n2cc(C)c(=O)[nH]c2=O)[C@@H](O)[C@@H]1O [Compound 6b], the anti-HIV activity is given as “inactive”.
